Measurements taken from patent publication US20220313690A1, “SYNERGISTIC EFFECT OF EYP001 AND IFN FOR THE TREATMENT OF HBV INFECTION” (ENYO PHARMA, priority 2019, published 2022).

Assays:
[1] = tested on: HBV pgRNA; test: HBV pgRNA change from baseline after 4-week treatment course in chronically infected HBV patients; assay type: in vivo, human; settings: 4 weeks
Protocol: FIG. 1: HBV pgRNA (log 10 copies/mL) changes from baseline after a 4 week anti-HBV treatment course of FXR agonist EYP001a or placebo in combination with interferon in chronically infected previously untreated HBV patients. PBO: placebo. peg-IFN: pegylated interferon alpha2a. 150 BID: 150 mg twice daily. 300 QD: 300 mg once daily. pgRNA: pregenomic ribonucleic acid.
(§1) HBV chronically infected patients (male (n=39) and female (n=34)) underwent a 4-week treatment course as either daily oral FXR agonist EYP001a monotherapy or placebo or entecavir (ETV) in Part A of the study (n=48) or in combination with interferon (n=23, weekly sub-cutaneous injections of pegylated IFNα2a, PEG-IFN) in Part B. Patient characteristics were: mean age of 39.7 years (range: 19-63); 6 of 73 were HBeAg-positive; 70% treatment naïve; mean baselines HBV DNA 4.2 (±1.5 SD) log 10 IU/mL, HBsAg 3.5 (±0.8 SD) log 10 IU/mL, and genotypes A (25), B (8), C (10), D (7) and E (4).

[2] = tested on: HBcrAg; test: HBcrAg change from baseline after 4-week treatment course in chronically infected HBV patients; assay type: in vivo, human; settings: 4 weeks
Excerpt: PBO: placebo. peg-IFN: pegylated interferon alpha2a. HBcrAg: hepatitis B core-related antigen.
as §1

[3] = tested on: HBV replication; test: Synergistic effect of combined treatment on HBV replication markers (pgRNA and HBcrAg) in patients; assay type: in vivo, human; settings: same dose, same period of 4 weeks, monotherapy
Excerpt: By “a synergistic effect” is intended to refer to an effect for decreasing the HBV replication which is more than the sum of the effects of each molecule alone. HBV replication can be assessed by determining surface HBV antigen (HBsAg), HBeAg, HBV core related antigen (HBcrAg), HBV DNA, HBV pre-genomic RNA, HBV pre-core RNA and/or HBV cccDNA. More particularly, the effect is observed on the pre-genomic RNA (HBV pgRNA) and/or on the hepatitis B core related antigen (HBcrAg).
as §1, with “(4). FXR engagement with all EYP001 doses led to decreases in C4 and increases in FGF19 (data not shown).” for “(4).”
At end of treatment on day 29, 400 mg QD EYP001 decrease the mean HBsAg by −0.1 log 10 IU/mL (p<0.05). […]

[4] = tested on: HBsAg; assay type: in vivo, human; settings: 400 mg QD EYP001, end of treatment day 29, p<0.05
Excerpt: as §1

[5] = molecular target: T1, FXR (Homo sapiens, UniProt Q96RI1); test: FXR engagement markers (C4, FGF19) in HBV patients; assay type: in vivo; settings: all EYP001 doses; data not shown
T1 construct: FXR engagement with all EYP001 doses led to decreases in C4 and increases in FGF19; from tissue; host or cells: endogenous FXR in the tissues of treated HBV patients (in vivo clinical study)
T1 sequence (Q96RI1 1-486): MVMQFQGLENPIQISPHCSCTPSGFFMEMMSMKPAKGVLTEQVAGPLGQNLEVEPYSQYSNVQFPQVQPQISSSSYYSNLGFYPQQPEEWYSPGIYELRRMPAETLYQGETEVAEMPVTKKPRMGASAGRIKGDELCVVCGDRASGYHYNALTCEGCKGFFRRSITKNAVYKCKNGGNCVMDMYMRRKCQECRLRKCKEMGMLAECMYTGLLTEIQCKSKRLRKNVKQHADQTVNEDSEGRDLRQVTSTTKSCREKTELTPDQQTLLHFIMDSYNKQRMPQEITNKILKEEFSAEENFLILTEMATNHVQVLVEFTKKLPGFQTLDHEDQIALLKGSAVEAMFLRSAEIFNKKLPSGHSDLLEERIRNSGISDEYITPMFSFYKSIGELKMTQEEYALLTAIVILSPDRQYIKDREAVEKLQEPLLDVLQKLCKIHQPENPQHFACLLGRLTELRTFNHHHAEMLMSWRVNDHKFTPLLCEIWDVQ
Excerpt: as §1

[6] = human, in vivo, 4 weeks
Protocol: Therefore, in a particular aspect, EYP001 is administered once a day.

[7] = tested on: HBV; settings: chronic hepatitis B patients; Erken et al 2018; cited from earlier work
[8] = ETV open-label 0.5 mg/day, end of treatment day 29
[9] = EYP001a 1 × 100 mg/day monotherapy, day 29
[10] = EYP001a 1 × 200 mg/day monotherapy, day 29
[11] = EYP001a 1 × 400 mg/day monotherapy, day 29
[12] = EYP001a 2 × 200 mg/day monotherapy, day 29

SMILES	HBVpgRNA mean change [1, 8] [Log10 Copies mL]	HBcrAg mean change [2, 8] [Log10 IU mL]	effect when used alone [3]	mean HBsAg decrease [4] [log 10 IU/mL]	change in C4 [5]	change in FGF19 [5]	pruritus, once a day versus twice a day [6]	HBVpgRNA mean change [1, 9] [Log10 Copies mL]	HBVpgRNA mean change [1, 10] [Log10 Copies mL]	HBVpgRNA mean change [1, 11] [Log10 Copies mL]	HBVpgRNA mean change [1, 12] [Log10 Copies mL]	HBcrAg mean change [2, 9] [Log10 IU mL]	HBcrAg mean change [2, 10] [Log10 IU mL]	HBcrAg mean change [2, 11] [Log10 IU mL]	HBcrAg mean change [2, 12] [Log10 IU mL]	HBV viral load [7]
C=C1[C@H](CO)[C@@H](O)C[C@@H]1n1cnc2c(=O)[nH]c(N)nc21 [ETV, entecavir, reference compound]	−0.3	0.03	–	–	–	–	–	–	–	–	–	–	–	–	–	–
O=C(O)c1cc2c(Cl)c(N3CCN(S(=O)(=O)c4c(Cl)cccc4Cl)CC3)ccc2o1 [EYP001]	–	–	do not show a significant effect	−0.1	decreases	increases	fewer pruritus occurs when EYP001 is administered once a day	0.5	0.4	0.2	−0.1	−0.3	0.2	0.02	1.2	reduces HBV viral load
